Legend:
[1] = test system: rebound hyperemia; assay: Reversal of pre-induced rebound hyperemia (FIGS. 5A-C); assay type: in vivo, human; conditions: right eye, brimonidine at […] after VISINE Original
Description: FIG. 5A is a baseline visual appearance of two eyes of a patient with an ocular condition.

[2] = test system: red eye condition; assay: Red eye study, brimonidine vs VISINE Original, cumulative red scores (Example 4); assay type: in vivo, human; conditions: three week scores, brimonidine at […]
Experimental: The patients were assigned “cumulative red scores” , prior to each administration (as baseline) and then 10 min after each dose, by dividing the bulbar conjunctiva into six sectors, each scored with a grade 1-3 score and the total cumulative score.

[3] = test system: eyes of a patient with an ocular condition; conditions: brimonidine 0.01-[…] (left eye) compared with tetrahydrozoline 0.05%, oxymetazoline […], naphazoline […] (right eye); baseline redness 4/4
Description: In an average clinical situation, baseline redness is at 1-1.5/4.

[4] = test system: vasoconstriction, rebound hyperemia, intraocular pressure, corneal endothelial cell pump; conditions: FIG. 2
[5] = test system: postoperative hyperemia and conjunctival hemorrhage; assay: Lasik prophylaxis (Example 2); conditions: brimonidine 0.02%
[6] = test system: chronic red eyes; assay: Chronic red eyes, eld brimonidine vs Naphcon-A, patient satisfaction assessment (Example 5); assay type: in vivo, human; conditions: brimonidine at […], drops twice a day for three to five weeks, seven patients
Experimental: The treatment was through drops twice a day for three to five weeks. At the end, patient satisfaction assessment was conducted.

Brc1c(N=C2NCCN2)ccc2nccnc12.O=C(O)C(O)C(O)C(=O)O [brimonidine, 5-bromo-6-(2-imidazolidinylideneamino)quinoxaline L-tartrate]
reversal of induced rebound hyperemia [1]: reversing the VISINE Original® induced rebound hyperemia | average redness count after administration (went down to) [2]: 1.6 | scleral whitening brightening effects [3]: significant scleral whitening brightening effects | concentration at which intraocular pressure reduction and corneal endothelial cell pump inhibition are just at their maximum [4]: about 0.09% | concentration below which intraocular pressure reduction and endothelial cell pump inhibition drop off exponentially ([4]; vasoconstrictive effect remains largely unchanged): below 0.08% | cosmetic appearance from day 1 vs. no vasoconstrictor and vs. Naphcon-A [5]: much improved | eye appearance after Lasik ([5]; group expanded to over 500 eyes): white quiet eye is noted in most patients | patient-reported redness [6]: All patients reported reduced redness
